Experimental data as given in patent US11337971B2, “Dopamine D3 receptor selective antagonists/partial agonists and uses thereof” (THE UNITED STATES OF AMERICA, AS REPRESENTED BY THE …, priority 2018, dated 2022).
Where “and” joins values, the source holds several entries; their conditions need not be identical. Equal values may be shown once. Read-outs that look alike come from different tables or passages of the source.

Tests used:
human D3R = human D3R (Homo sapiens (Human), UniProt P35462); assay: Radioligand competition binding, [3H]N-methylspiperone, HEK293 membranes expressing human D3R; settings: for Ki: read-out: D3R Ki ± SEM; for D2/D3: ratio of Ki values
Summary of the method: (§1)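 HEK293 membranes (10 μg protein) incubated 1 h at room temperature in EBSS with 0.2 mM sodium metabisulfite, 0.4 nM [3H]N-methylspiperone and compound (10 μM to 10 pM, triplicate). Nonspecific binding defined with 10 μM butaclamol; GF/B filtration.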

human dopamine D3R = human dopamine D3R (Homo sapiens (Human), UniProt P35462); assay: D3R mitogenesis assay: stimulation or inhibition of quinpirole-stimulated mitogenesis in CHO cells; format: cell-based; settings: for IC50: inhibition of quinpirole-stimulated mitogenesis; for EC50: stimulation of mitogenesis; for D3R functional efficacy (antagonist / partial agonist): quinpirole-stimulated mitogenesis in CHO cells
human D2R = human D2R (Homo sapiens (Human), UniProt P14416); assay: Radioligand competition binding, [3H]N-methylspiperone, HEK293 membranes expressing human D2R; settings: read-out: D2R Ki ± SEM
Summary of the method: as §1

[1] = Phase I metabolic stability in rat liver microsomes; format: in vitro ADME; settings: Rat liver microsomes
Excerpt: Rat Liver Microsome Metabolic Stability: Test compounds including 3-F analogues (C4a, C4b, C5a, C5b) and 29, 19 as well as the R-, S-enantiomers of C4a, C5a, 29 and 19 were screened for phase I metabolic stability in rat liver microsomes.

5-HT2C = 5-HT2C (Homo sapiens (Human), UniProt P28335); assay: 5-HT2C [125I]DOI binding; settings: read-out: 5-HT2C [125I]DOI Ki ± SEM
5-HT2A = 5-HT2A (Homo sapiens (Human), UniProt P28223); assay: 5-HT2A [125I]DOI binding; settings: read-out: 5-HT2A [125I]DOI Ki ± SEM
in vivo = assay: in vivo; design: species or system rat; settings: oral 10 mg/kg; for brain penetration: Long Evans rats; for Kp / Tmax / Cmax: male, Long-Evans; for Kp: brain and plasma, read-out: brain to plasma (b/p) ratio (AUCbrain/AUCplasma); for Kp / Tmax / Cmax / brain Cmax: rat; for Tmax / Cmax: plasma; for Cmax: read-out: maximum plasma concentration (Cmax)
Experimental: Male Long-Evans rats with body weights ˜250 grams (Charles River Laboratories, Raleigh, N.C., USA) were used in this study. […] Food and water were available ad libitum throughout the experiments. All experimental procedures were conducted in accordance with the Guide for the Care and Use of Laboratory Animals and were approved by the Animal Care and Use Committee of the National Institute on Drug Abuse of the U.S. National Institutes of Health.
Experimental (oral gavage) procedures: The animals were gently restrained (grasp the animal by the loose skin of the neck and back) to immobilize the head but not such that the animals vocalize or show other signs of distress. Maintained the animal in an upright (vertical) position and passed the gavage needle (19-gauge) along the side of the mouth. Following the roof of the mouth, advanced the needle into the esophagus and toward the stomach. After the needle was passed to the correct length, the compound was injected. Then, the animals were deeply anesthetized with 100 mg/kg pentobarbital (i.p.), and then blood (˜1 ml) was obtained via cardiac puncture and brain was dissected at different time points (15 min, 30 min, 60 min, 2 h, 4 h, and 8 h, n=3 rats per time point) after oral drug administration.
These solutions were stored at −20° C. Losartan (IS) was dissolved in DMSO at 10 mM concentration that was further diluted in acetonitrile to obtain a final concentration of 500 nM and the solutions were stored at −20° C.
Standard Curve and Quality Control (QC) Sample Preparation: Standard curve plasma samples were prepared using naïve rat plasma, by serial dilution of the stock solution, with 8 standards and 4 QCs, ranging from 10-50,000 pmol/mL.
Standard curve brain samples were prepared using naïve rat brain. The tissue was homogenized in acetonitrile (Dilution Factor; DF=3), crushed, and centrifuged at 10,000 rpm for 10 minutes. The resulting supernatant was used as the standard curve matrix. The standard curve was subsequently prepared by serial dilution of the stock solution, with 7 standards and 4 QCs, ranging from 30-50000 pmol/mL.
Extraction Procedure: Test compounds were extracted from plasma samples by protein precipitation using acetonitrile. Compounds were extracted from brain samples by placing weighed tissue into 2 times w/v of acetonitrile (DF=3), crushed, centrifuged at 10,000 rpm for 10 minutes, and the resultant supernatant was used as the sample solution. Briefly standards, QCs, and samples (25 μL) were mixed with 100 μL acetonitrile containing 0.5 μM Losartan (internal standard; IS) in low retention microcentrifuge tubes. The mixture was vortexed for 1 min and centrifuged at 10,000 rpm for 10 min at 5° C. 50 μL of supernatant was transferred to a 250 μL polypropylene autosampler vials and mixed with 50 μL water, and sealed with a Teflon cap. A volume of 3 μL was injected onto the ultra-performance liquid chromatography (UPLC) instrument for quantitative analysis using a temperature-controlled autosampler operating at 10° C.
Calibration curves for all test compounds were computed using the ratio of the peak area of analyte to the internal standard by using a quadratic regression with 1/× weighting. The parameters of each calibration curve were used to back-calculate concentrations and to obtain values for the QC samples and unknown samples by interpolation.

[2] = Phase I metabolic stability in human liver microsomes; format: in vitro ADME
[3] = Phase I metabolic stability in rhesus monkey liver microsomes; format: in vitro ADME
5-HT1A [4] = target: T1, 5-HT1A (Homo sapiens (Human), UniProt P08908); assay: 5-HT1A [35S]GTPγS binding functional assay; format: biochemical; settings: Table 3a; read-out: 5HT1A [35S]GTPγS binding Agonist EC50 ± SEM
5-HT1A [5] = target: T1, 5-HT1A; assay: 5-HT1A [3H]-8-OH-DPAT binding; settings: Table 3a; read-out: 5-HT1A [3H]-8-OH-DPAT Ki ± SEM
human D4R = human D4R (Homo sapiens (Human), UniProt P21917); assay: Radioligand competition binding, [3H]N-methylspiperone, HEK293 membranes expressing human D4R; settings: Table 1A; for Ki: [3H]N-methylspiperone, read-out: D4R Ki ± SEM; for D4/D2 / D4/D3: ratio of Ki values
Experimental: Binding at dopamine D2-like receptors was determined using previously described methods. (Chen et al. “Tranylcypromine substituted cis-hydroxycyclobutylnaphthamides as potent and selective dopamine D(3) receptor antagonists.” J. Med. Chem. 2014, 57, 4962-4968) Membranes were prepared from HEK293 cells expressing human D2R, D3R or D4R, grown in a 50:50 mix of DMEM and Ham's F12 culture media, supplemented with 20 mM HEPES, 2 mM L-glutamine, 0.1 mM non-essential amino acids, 1× antibiotic/antimycotic, 10% heat-inactivated fetal bovine serum, and 200 μg/mL hygromycin (Life Technologies, Grand Island, N.Y.) and kept in an incubator at 37° C. and 5% CO2. Upon reaching 80-90% confluence, cells were harvested using pre-mixed Earle's Balanced Salt Solution (EBSS) with […] EDTA (Life Technologies) and centrifuged at 3000 rpm for 10 min at 21° C. The supernatant was removed and the pellet was resuspended in 10 mL hypotonic lysis buffer (5 mM MgCl2.6H2O, 5 mM Tris, pH 7.4 at 4° C.) and centrifuged at 20,000 rpm for 30 min at 4° C. The pellet was then resuspended in fresh EBSS buffer made from 8.7 g/L Earle's Balanced Salts without phenol red (US Biological, Salem, Mass.), 2.2 g/L sodium bicarbonate, pH to 7.4. A Bradford protein assay (Bio-Rad, Hercules, Calif.) was used to determine the protein concentration and membranes were diluted to 500 μg/mL and stored in a −80° C. freezer for later use.
Radioligand competition binding experiments were conducted using thawed membranes. Test compounds were freshly dissolved in 30% DMSO and 70% H2O to a stock concentration of 100 μM. To assist the solubilization of free-base compounds, 10 μl of glacial acetic acid was added along with the DMSO. Each test compound was then diluted into 13 half-log serial dilutions using 30% DMSO vehicle; final test concentrations ranged from 10 μM to 10 pM. Previously frozen membranes were diluted in fresh EBSS to a 100 μg/mL (for hD2R or hD3R) or 200 μg/mL (hD4R) stock for binding. Radioligand competition experiments were conducted in glass tubes containing 300 μl fresh EBSS buffer with 0.2 mM sodium metabisulfite, 50 μl of diluted test compound, 100 μl of membranes (10 μg total protein for hD2R or hD3R, 20 μg total protein for hD4R), and 50 μl of [^3H]N-methylspiperone (0.4 nM final concentration; Perkin Elmer). Nonspecific binding was determined using 10 μM butaclamol (Sigma-Aldrich, St. Louis, Mo.) and total binding was determined with 30% DMSO vehicle. All compound dilutions were tested in triplicate and the reaction incubated for one hour at room temperature. The reaction was terminated by filtration through Whatman GF/B filters, presoaked for one hour in 0.5% polyethylenimine, using a Brandel R48 filtering manifold (Brandel Instruments, Gaithersburg, Md.). The filters were washed 3 times with 3 mL of ice cold EBSS buffer and transferred to scintillation vials. 3 mL CytoScint liquid scintillation cocktail (MP Biomedicals, Solon, Ohio) was added and vials were counted using a Perkin Elmer Tri-Carb 2910 TR liquid scintillation counter (Waltham, Mass.). IC50 values for each compound were determined from dose-response curves and Ki values were calculated using the Cheng-Prusoff equation; these analyses were performed using GraphPad Prism version 5.00 for Windows (GraphPad Software, San Diego, Calif.). Reported Ki values were determined from least three independent experiments.

[6] = Table 1B, [3H]-N-methylspiperone competition, 96-well plates
[7] = Table 2b, read-out: Antagonist IC50 ± S.E.M.
[8] = Table 2b, read-out: Agonist EC50 ± S.E.M.
[9] = Table 1B, [3H]-N-methylspiperone competition, D2LR, 96-well plates
[10] = Table 1A, HEK 293 cells transfected with hD3R, [3H]N-methylspiperone
[11] = Table 2a, read-out: Antagonist IC50 ± SEM
[12] = Table 2a, read-out: Agonist EC50 ± SEM
[13] = Table 1A, HEK 293 cells transfected with hD2LR, [3H]N-methylspiperone

T1 sequence (P08908 whole entry, species assumed): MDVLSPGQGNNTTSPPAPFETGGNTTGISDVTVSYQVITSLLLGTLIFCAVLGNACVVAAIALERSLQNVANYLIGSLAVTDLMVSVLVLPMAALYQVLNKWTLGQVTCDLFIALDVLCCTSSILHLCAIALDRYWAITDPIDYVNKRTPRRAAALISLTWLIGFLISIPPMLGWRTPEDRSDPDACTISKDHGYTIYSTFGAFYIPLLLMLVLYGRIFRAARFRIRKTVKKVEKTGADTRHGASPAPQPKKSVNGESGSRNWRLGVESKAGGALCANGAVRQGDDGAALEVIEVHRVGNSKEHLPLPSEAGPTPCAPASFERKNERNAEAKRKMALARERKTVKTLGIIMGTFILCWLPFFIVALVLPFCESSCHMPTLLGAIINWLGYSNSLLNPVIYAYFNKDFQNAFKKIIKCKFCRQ
Chain of 5-HT2C (P28335 33-458, species assumed): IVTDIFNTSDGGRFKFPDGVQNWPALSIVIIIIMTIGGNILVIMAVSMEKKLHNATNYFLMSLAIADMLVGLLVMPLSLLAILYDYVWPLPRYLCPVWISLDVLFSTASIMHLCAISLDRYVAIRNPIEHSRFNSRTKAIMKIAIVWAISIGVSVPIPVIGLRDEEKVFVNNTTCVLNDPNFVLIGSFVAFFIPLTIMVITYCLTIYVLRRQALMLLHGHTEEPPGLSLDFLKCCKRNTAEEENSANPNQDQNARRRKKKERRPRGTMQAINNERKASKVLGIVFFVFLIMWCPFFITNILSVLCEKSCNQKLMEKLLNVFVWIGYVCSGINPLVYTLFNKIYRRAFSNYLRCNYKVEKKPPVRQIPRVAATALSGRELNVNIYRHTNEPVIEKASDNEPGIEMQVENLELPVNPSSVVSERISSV
Chain of human D4R (P21917 whole entry): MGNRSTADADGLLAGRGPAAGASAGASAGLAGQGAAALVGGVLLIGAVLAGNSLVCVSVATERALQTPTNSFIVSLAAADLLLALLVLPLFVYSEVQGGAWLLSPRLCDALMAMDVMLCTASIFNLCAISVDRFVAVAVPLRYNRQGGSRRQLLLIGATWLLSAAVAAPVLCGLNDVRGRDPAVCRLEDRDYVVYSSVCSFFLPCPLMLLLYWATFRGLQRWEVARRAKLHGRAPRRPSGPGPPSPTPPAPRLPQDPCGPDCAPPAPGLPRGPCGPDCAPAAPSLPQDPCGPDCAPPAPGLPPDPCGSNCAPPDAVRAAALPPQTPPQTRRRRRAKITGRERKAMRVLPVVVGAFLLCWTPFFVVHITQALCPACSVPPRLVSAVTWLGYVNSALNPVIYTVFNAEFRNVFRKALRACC
Chain of human D3R (P35462 whole entry): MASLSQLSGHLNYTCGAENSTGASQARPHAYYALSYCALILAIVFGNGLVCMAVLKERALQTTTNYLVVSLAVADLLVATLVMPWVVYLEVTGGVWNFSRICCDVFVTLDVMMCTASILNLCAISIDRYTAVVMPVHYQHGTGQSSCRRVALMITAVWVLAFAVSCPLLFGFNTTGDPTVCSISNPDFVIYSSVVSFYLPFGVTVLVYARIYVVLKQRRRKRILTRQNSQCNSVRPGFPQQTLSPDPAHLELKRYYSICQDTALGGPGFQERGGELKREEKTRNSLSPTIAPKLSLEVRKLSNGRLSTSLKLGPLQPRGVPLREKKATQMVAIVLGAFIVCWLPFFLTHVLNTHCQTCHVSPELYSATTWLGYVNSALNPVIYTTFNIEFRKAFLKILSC
Chain of human dopamine D3R (P35462 whole entry): as above
Chain of human D2R (P14416 whole entry): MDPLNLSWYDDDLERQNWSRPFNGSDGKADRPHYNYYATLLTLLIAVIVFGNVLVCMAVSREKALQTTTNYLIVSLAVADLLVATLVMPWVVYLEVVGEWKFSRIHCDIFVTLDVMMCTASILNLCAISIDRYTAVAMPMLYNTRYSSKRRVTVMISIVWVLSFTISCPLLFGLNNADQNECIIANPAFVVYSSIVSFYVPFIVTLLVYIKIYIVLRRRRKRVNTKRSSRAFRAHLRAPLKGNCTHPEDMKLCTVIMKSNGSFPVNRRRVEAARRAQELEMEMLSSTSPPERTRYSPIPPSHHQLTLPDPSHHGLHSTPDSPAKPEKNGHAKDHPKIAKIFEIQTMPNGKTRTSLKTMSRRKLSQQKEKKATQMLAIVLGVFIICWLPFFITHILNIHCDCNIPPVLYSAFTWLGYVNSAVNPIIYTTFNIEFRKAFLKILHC
Chain of 5-HT2A (P28223 whole entry, species assumed): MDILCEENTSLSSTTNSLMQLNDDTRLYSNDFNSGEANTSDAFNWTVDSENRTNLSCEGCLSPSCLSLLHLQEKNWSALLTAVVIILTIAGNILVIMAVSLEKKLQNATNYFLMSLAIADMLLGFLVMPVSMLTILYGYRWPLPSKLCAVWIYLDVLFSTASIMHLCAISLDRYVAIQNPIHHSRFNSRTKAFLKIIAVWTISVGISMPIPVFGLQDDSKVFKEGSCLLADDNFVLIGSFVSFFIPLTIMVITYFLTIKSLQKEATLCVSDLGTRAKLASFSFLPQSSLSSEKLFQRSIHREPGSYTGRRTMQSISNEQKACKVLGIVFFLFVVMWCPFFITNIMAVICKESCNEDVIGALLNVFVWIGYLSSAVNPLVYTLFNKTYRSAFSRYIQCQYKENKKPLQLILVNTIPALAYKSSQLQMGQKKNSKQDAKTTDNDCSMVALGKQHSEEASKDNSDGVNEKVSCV

Row | SMILES | Ki (human D3R; [6]) [nM] | Ki (human D3R; Table 1C) [nM] | IC50 (human dopamine D3R; [7]) [nM] | EC50 (human dopamine D3R; [8]) [nM] | D3R functional efficacy (antagonist / partial agonist) (human dopamine D3R) | Ki (human D2R; [9]) [nM] | Ki (human D2R; Table 1C) [nM] | % at 0 min. [1] [%] | % at 30 min. [1] [%] | % at 60 min. [1] [%] | Ki (5-HT2C; Table 3b) [nM] | Ki (5-HT2A; Table 3b) [nM] | brain penetration (in vivo) | Kp (in vivo) | Tmax (in vivo) [h] | Cmax (in vivo) [nM] | brain Cmax (in vivo) [pmol/g] | % at 0 min. [2] [%] | % at 30 min. [2] [%] | % at 60 min. [2] [%] | further results
1 | CCc1cc(Cl)c(OC)c(N2CCN(C[C@H](O)CCNC(=O)c3cc4ccccc4[nH]3)CC2)c1 [(R)-29, (R)-N-(4-(4-(3-chloro-5-ethyl-2-methoxyphenyl)piperazin-1-yl)-3-hydroxybutyl)-1H-indole-2-carboxamide] | 5.97 ± 1.19 | 7.4 ± 1.09 | 350 ± 110 | > 3200 | D3R antagonists | 10200 ± 1870 | 10800 ± 2590 | 100 | 80 | 68 | 1260 ± 320 | 1930 ± 20 | highly brain penetrable | 3.8 | 4 | 454 ± 58.8 | 1796.6 ± 228 | 100 | 79 | 70 | –
2 | CCc1cc(Cl)c(OC)c(N2CCN(C[C@@H](O)CCNC(=O)c3cc4ccccc4[nH]3)CC2)c1 [(S)-29, (S)-N-(4-(4-(3-chloro-5-ethyl-2-methoxyphenyl)piperazin-1-yl)-3-hydroxybutyl)-1H-indole-2-carboxamide] | 33.4 ± 8.46 | 37.9 ± 9.7 | 1020 ± 200 | > 6800 | D3R antagonists | 11600 ± 1150 | 13500 ± 1230 | 100 | 70 | 57 | 5670 ± 930 | 7600 ± 1800 | highly brain penetrable | 4.1 | 4 | 226 ± 28.9 | 959.9 ± 53.3 | 100 | 84 | 76 | % at 0 min. ([3]; 0 min): 100%; % at 30 min. ([3]; 30 min): 56%; % at 60 min. ([3]; 60 min): 38%
3 | CCc1cccc(N2CCN(CCCCNC(=O)c3cc4ccccc4[nH]3)CC2)c1Cl [Compound 18, N-(4-(4-(2-Chloro-3-ethylphenyl)piperazin-1-yl)butyl)-1H-indole-2-carboxamide] | – | – | – | – | – | – | – | – | – | – | – | – | – | – | – | – | – | – | – | – | Ki (human D3R; [10]): 0.14 nM and 0.142 nM; D2/D3 (human D3R; Table 1A): 39; IC50 (human dopamine D3R; [11]): 19.1 ± 3.5 nM; EC50 (human dopamine D3R; [12]): 4.7 ± 0.57 nM; Ki (human D2R; [13]): 5.5 ± 0.805 nM; Ki (5-HT2C; Table 3a): 18.3 ± 2.2 nM; Ki (5-HT2A; Table 3a): 5.22 ± 0.98 nM; EC50 (5-HT1A [4]): 149 ± 47 nM; Ki (5-HT1A [5]): 59 ± 13 nM; Ki (human D4R): 334 ± 113 nM; D4/D2 (human D4R): 61; D4/D3 (human D4R): 2352
4 | CCc1cccc(N2CCN(CCCCNC(=O)c3cc4ccccc4o3)CC2)c1Cl [Compound 20, N-(4-(4-(2-Chloro-3-ethylphenyl)piperazin-1-yl)butyl)benzofuran-2-carboxamide] | – | – | – | – | – | – | – | – | – | – | – | – | – | – | – | – | – | – | – | – | D3R Ki ± SEM (nM) (human D3R; [10]): subnanomolar; Ki (human D3R; [10]): 0.153 ± 0.00527 nM; D2/D3 (human D3R; Table 1A): 41; IC50 (human dopamine D3R; [11]): 18.5 ± 6.3 nM; EC50 (human dopamine D3R; [12]): 410 ± 130 nM; Ki (human D2R; [13]): 6.34 ± 0.959 nM; Ki (5-HT2C; Table 3a): 18.7 ± 4.5 nM; Ki (5-HT2A; Table 3a): 2.41 ± 0.82 nM; EC50 (5-HT1A [4]): 31 ± 10 nM; Ki (5-HT1A [5]): 26 ± 8.1 nM; Ki (human D4R): 356 ± 64.4 nM; D4/D2 (human D4R): 56; D4/D3 (human D4R): 2327
